Read-outs that look alike come from different tables or passages of the source.
Columns and labels:
PI3Kδ = PI3Kδ (Homo sapiens (Human), UniProt O00329); assay: Inhibition of PI3Kδ efficacy assay (ADP-Glo kinase assay); format: biochemical; conditions: read-out: PI3Kδ inhibitory activity (IC50)
Summary of the method: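 Luminescent ADP-Glo readout of PI3Kδ: after a 60 min RT reaction with PI/ATP substrate, ATP depletion (40 min) and ADP detection (40 min) steps followed. Compounds tested as eight five-fold serial dilutions; inhibition rates fitted to log(inhibitor) vs. response, variable slope, for IC50.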

KRAS^G12C-SOS1 = KRAS^G12C-SOS1 (Homo sapiens (Human), UniProt P01116, G12C); assay: HTRF KRAS G12C/SOS1 binding assay; conditions: Table 5
Summary of the method: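 Compound was serially diluted five-fold over eight points, with a 2 mM DMSO stock. After anti-tag-Tb3+ and anti-tag-XL665 were added, plates were incubated 3 h at 4 °C and read by HTRF (ex 337 nm, em 620/665 nm ratio). IC50 values come from four-parameter variable-slope fits.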

[1] = system: NCI-H358 cells (KRAS G12C mutant); assay: NCI-H358 cell proliferation inhibition (CellTiter-Glo); format: cell-based; conditions: Homo sapiens, NCI-H358, 72 h; H358 cells (G12C mutation), 3 days, Table 6; read-out: NCI-H358 (IC50)
[2] = system: MIA PaCa-2 cells (KRAS G12C mutant); assay: MIA PaCa-2 cell anti-proliferation (CellTiter-Glo); format: cell-based; conditions: Homo sapiens
Summary of the method: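 Viable-cell luminescence (CellTiter-Glo, ≥30 min at 25 °C) measured after a 3-day, 37 °C exposure to compounds at 9 points, 4-fold spaced, in DMEM containing 10% FBS plus 2.5% horse serum. IC50 derived versus no-inhibitor wells.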

[3] = system: NCI-H358-AMGR drug-resistant cell line; assay: NCI-H358-AMGR drug-resistant cell proliferation inhibitory activity test; format: cell-based; conditions: 72 h; NCI-H358-AMGR drug-resistant cells, 3 days incubation, CellTiter-Glo
Summary of the method: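 Luminescent CellTiter-Glo read-out after 3-day, 37° C compound exposure (8 points, 5-fold series) of AMG510-resistant NCI-H358 cells plated at 4×10^3 per well.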

[4] = 72 h, MIA Paca-2 cells, 3 days, Table 7, read-out: MIA PaCa-2 (IC50)

Chain of PI3Kδ (O00329 whole entry): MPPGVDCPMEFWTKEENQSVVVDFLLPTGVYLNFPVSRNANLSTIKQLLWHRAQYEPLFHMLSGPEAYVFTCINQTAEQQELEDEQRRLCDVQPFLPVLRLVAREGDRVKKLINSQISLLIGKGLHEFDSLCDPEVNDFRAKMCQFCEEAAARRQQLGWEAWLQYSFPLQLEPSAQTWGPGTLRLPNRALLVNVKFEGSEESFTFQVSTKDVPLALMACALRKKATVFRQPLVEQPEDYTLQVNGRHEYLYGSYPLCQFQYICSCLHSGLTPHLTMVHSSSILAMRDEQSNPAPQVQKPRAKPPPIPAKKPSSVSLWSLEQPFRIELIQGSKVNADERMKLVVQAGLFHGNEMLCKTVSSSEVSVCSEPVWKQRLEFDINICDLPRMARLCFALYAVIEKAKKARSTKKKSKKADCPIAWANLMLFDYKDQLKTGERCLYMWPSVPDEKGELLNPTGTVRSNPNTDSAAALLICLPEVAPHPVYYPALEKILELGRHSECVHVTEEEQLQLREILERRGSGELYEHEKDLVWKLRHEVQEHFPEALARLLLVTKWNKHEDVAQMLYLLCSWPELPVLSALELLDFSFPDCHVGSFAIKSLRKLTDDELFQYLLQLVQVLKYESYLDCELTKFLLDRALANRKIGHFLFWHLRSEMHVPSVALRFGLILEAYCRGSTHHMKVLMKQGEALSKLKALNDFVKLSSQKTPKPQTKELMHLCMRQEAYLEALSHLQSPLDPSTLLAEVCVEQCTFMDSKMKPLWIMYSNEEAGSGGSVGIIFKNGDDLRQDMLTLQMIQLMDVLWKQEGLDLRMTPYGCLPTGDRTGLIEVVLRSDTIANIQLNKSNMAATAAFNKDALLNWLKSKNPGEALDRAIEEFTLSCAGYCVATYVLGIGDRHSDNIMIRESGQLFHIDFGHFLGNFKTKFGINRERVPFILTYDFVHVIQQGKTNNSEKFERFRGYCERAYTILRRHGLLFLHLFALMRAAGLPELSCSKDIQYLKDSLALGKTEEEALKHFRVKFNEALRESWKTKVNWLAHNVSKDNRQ
Chain of PI3Kδ (P27986 whole entry partner): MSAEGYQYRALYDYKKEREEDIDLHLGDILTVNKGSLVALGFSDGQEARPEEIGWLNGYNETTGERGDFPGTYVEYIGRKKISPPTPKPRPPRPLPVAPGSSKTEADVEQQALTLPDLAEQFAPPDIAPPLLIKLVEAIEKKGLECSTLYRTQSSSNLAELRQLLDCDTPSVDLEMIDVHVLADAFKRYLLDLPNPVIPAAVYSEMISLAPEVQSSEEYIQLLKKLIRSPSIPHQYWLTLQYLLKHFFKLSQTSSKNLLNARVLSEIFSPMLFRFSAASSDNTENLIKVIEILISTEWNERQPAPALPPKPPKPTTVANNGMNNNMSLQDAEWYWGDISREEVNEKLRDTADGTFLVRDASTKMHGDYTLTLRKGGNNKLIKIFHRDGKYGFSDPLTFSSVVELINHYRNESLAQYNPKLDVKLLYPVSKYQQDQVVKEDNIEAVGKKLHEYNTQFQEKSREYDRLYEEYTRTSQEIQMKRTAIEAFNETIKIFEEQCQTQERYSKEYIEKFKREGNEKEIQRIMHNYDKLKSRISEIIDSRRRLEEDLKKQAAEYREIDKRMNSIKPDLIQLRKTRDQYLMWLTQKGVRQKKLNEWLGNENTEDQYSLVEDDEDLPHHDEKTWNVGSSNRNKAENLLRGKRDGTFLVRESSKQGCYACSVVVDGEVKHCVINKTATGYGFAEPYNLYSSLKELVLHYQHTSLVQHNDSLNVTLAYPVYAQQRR
Chain of KRAS^G12C-SOS1 (P01116-2 other isoform, or with tags, fused parts or gaps G12C): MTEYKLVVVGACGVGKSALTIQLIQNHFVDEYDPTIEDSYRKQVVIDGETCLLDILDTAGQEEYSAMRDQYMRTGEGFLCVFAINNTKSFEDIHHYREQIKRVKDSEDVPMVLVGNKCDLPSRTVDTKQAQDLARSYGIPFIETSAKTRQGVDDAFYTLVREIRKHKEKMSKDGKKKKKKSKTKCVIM

Structure (SMILES): COc1ncc(-c2ccc3ncnc(C4=CCN(C(=O)/C=C/C(C)=O)CC4)c3c2)cc1NS(=O)(=O)c1ccc(F)cc1F [Example 198, (E)-2,4-difluoro-N-(2-methoxy-5-(4-(1-(4-oxopent-2-enoyl)-1,2,3,6-tetrahydropyridin-4-yl)quinazolin-6-yl)pyridin-3-yl)benzenesulfonamide]
- IC50 (PI3Kδ; Table 4): 13.3 nM
- IC50 (KRAS^G12C-SOS1): 133 nM
- IC50 [1]: 12.2 nM
- IC50 [2, 4]: 8.7 nM
- IC50 [3]: 22.1 nM

Structure (SMILES): COc1ncc(-c2ccc3ncnc(N4CCC5(CC4)CN(C(=O)/C=C/C(C)=O)C5)c3c2)cc1NS(=O)(=O)c1c(F)cccc1F [Example 49, (E)-2,6-difluoro-N-(2-methoxy-5-(4-(2-(4-oxopent-2-enoyl)-2,7-diazaspiro[3.5]nonan-7-yl)quinazolin-6-yl)pyridin-3-yl) benzenesulfonamide]
- IC50 (PI3Kδ; Table 2): 14.9 nM
- IC50 (KRAS^G12C-SOS1): 225 nM
- IC50 [1]: 32 nM
- IC50 [2, 4]: 110 nM
- IC50 [3]: 45.5 nM

Structure (SMILES): COc1ncc(-c2ccc3ncnc(N4CC5CCC(C4)N5C(=O)/C=C/C(C)=O)c3c2)cc1NS(=O)(=O)c1c(F)cc(F)cc1F [Example 155]
- IC50 (PI3Kδ; Table 4): 53.1 nM
- IC50 (KRAS^G12C-SOS1): 462 nM
- IC50 [1]: 40.3 nM
- IC50 [2, 4]: 77.6 nM
- IC50 [3]: 164 nM

Structure (SMILES): COc1ncc(-c2ccc3ncnc(N4CCN(C(=O)/C=C/C(C)=O)CC4)c3c2)cc1NS(=O)(=O)c1c(F)cccc1C#N [Example 122, (E)-2-cyano-6-fluoro-N-(2-methoxy-5-(4-(4-(4-oxopent-2-enoyl)piperazin-1-yl)quinazolin-6-yl)pyridin-3-yl)benzenesulfonamide]
- IC50 (PI3Kδ; Table 2): 4.7 nM
- IC50 (KRAS^G12C-SOS1): 145 nM
- IC50 [1]: 47.9 nM
- IC50 ([2]; MIA PaCa-2, 72 h, read-out: MIA PaCa-2 (IC50, nM)): 106 nM
- IC50 [3]: 128 nM

Structure (SMILES): COc1ncc(-c2ccc3ncnc(C4=CCN(C(=O)/C=C/C(C)=O)CC4)c3c2)cc1NS(=O)(=O)c1sc(C)nc1C [Example 199, (E)-N-(2-methoxy-5-(4-(1-(4-oxopent-2-enoyl)-1,2,3,6-tetrahydropyridin-4-yl)quinazolin-6-yl)pyridin-3-yl)-2,4-dimethylthiazole-5-sulfonamide]
- IC50 (PI3Kδ; Table 4): 12 nM
- IC50 (KRAS^G12C-SOS1): 176 nM
- IC50 [1]: 12 nM
- IC50 [2, 4]: 41.1 nM
- IC50 [3]: 21.7 nM

Structure (SMILES): COc1ncc(-c2ccc3ncnc(C4CCN(C(=O)/C=C/C(C)=O)CC4)c3n2)cc1NS(=O)(=O)c1ccccc1F [Example 232, (E)-2-fluoro-N-(2-methoxy-5-(4-(1-(4-oxopent-2-enoyl)piperidin-4-yl)pyrido[3,2-d]pyrimidin-6-yl)pyridin-3-yl)benzenesulfonamide]
- IC50 (PI3Kδ; Table 4): 14.6 nM
- IC50 (KRAS^G12C-SOS1): 269 nM
- IC50 [1]: 8.7 nM
- IC50 [2, 4]: 17.7 nM
- IC50 [3]: 44 nM

Structure (SMILES): COc1ncc(-c2ccc3ncnc(C4CCN(C(=O)/C=C/C(C)=O)CC4)c3c2)cc1NS(=O)(=O)c1c(F)cccc1F [Example 205, (E)-2,6-difluoro-N-(2-methoxy-5-(4-(1-(4-oxopent-2-enoyl)piperidin-4-yl)quinazolin-6-yl)pyridin-3-yl) benzenesulfonamide]
- IC50 (PI3Kδ; Table 4): 9 nM
- IC50 (KRAS^G12C-SOS1): 369 nM
- IC50 [1]: 14.3 nM
- IC50 [2, 4]: 78.9 nM
- IC50 [3]: 15.2 nM

Structure (SMILES): COc1ncc(-c2ccc3ncnc(N4CCN(C(=O)/C=C/C(C)=O)CC4)c3c2)cc1NS(=O)(=O)c1ccccc1C [Example 93, (E)-N-(2-methoxy-5-(4-(4-(4-oxopent-2-enoyl)piperazin-1-yl)quinazolin-6-yl)pyridin-3-yl)-2-methylbenzenesulfonamide]
- IC50 (PI3Kδ; Table 2): 72.9 nM
- IC50 (KRAS^G12C-SOS1): 344 nM
- IC50 [1]: 18 nM
- IC50 [2, 4]: 39.4 nM
- IC50 [3]: 69.3 nM

Structure (SMILES): COc1ncc(-c2ccc3ncnc(N4CCN(C(=O)/C=C/C(C)=O)CC4)c3c2)cc1NS(=O)(=O)c1ccncc1C [Example 172, (E)-N-(2-methoxy-5-(4-(4-(4-oxopent-2-enoyl)piperazin-1-yl)quinazolin-6-yl)pyridin-3-yl)-3-methyl-pyridine-4-sulfonamide]
- IC50 (PI3Kδ; Table 4): 11.3 nM
- IC50 (KRAS^G12C-SOS1): 622 nM
- IC50 [1]: 68.1 nM
- IC50 [2, 4]: 171 nM
- IC50 [3]: 451 nM

Structure (SMILES): COc1ncc(-c2ccc3ncnc(N4CCN(C(=O)/C=C/C(C)=O)CC4)c3c2)cc1NS(=O)(=O)c1ccccc1F [Example 91, (E)-2-fluoro-N-(2-methoxy-5-(4-(4-(4-oxopent-2-enoyl)piperazin-1-yl)quinazolin-6-yl)pyridin-3-yl)benzenesulfonamide]
- IC50 (PI3Kδ; Table 2): 61.5 nM
- IC50 (KRAS^G12C-SOS1): 173 nM
- IC50 [1]: 17.8 nM
- IC50 [2, 4]: 30.7 nM
- IC50 [3]: 83.9 nM

Structure (SMILES): COc1ncc(-c2ccc3ncnc(N4CCN(C(=O)/C=C/C(C)=O)CC4)c3c2)cc1NS(=O)(=O)c1ccc(F)cc1 [Example 92, (E)-4-fluoro-N-(2-methoxy-5-(4-(4-(4-oxopent-2-enoyl)piperazin-1-yl)quinazolin-6-yl)pyridin-3-yl)benzenesulfonamide]
- IC50 (PI3Kδ; Table 2): 51.1 nM
- IC50 (KRAS^G12C-SOS1): 369 nM
- IC50 [1]: 16.7 nM
- IC50 [2, 4]: 31 nM
- IC50 [3]: 111 nM

Structure (SMILES): COc1ncc(-c2ccc3ncnc(N4CCN(C(=O)/C=C/C(C)=O)CC4)c3c2)cc1NS(=O)(=O)c1ccc(C(F)(F)F)cc1F [Example 124, (E)-2-fluoro-N-(2-methoxy-5-(4-(4-(4-oxopent-2-enoyl)piperazin-1-yl)quinazolin-6-yl)pyridin-3-yl)-4-(trifluoromethyl)benzenesulfonamide]
- IC50 (PI3Kδ; Table 2): 61.4 nM
- IC50 (KRAS^G12C-SOS1): 730 nM
- IC50 [1]: 19.7 nM
- IC50 [2, 4]: 58.4 nM
- IC50 [3]: 85.5 nM

Structure (SMILES): COc1ncc(-c2ccc3ncnc(N4CCN(C(=O)/C=C/C(C)=O)C[C@@H]4C)c3c2)cc1NS(=O)(=O)c1ccccc1F [Example 152, (S,E)-2-fluoro-N-(2-methoxy-5-(4-(2-methyl-4-(4-oxopent-2-enoyl)piperazin-1-yl)quinazolin-6-yl)pyridin-3-yl)benzenesulfonamide]
- IC50 (PI3Kδ; Table 4): 15.5 nM
- IC50 (KRAS^G12C-SOS1): 175 nM
- IC50 [1]: 29.8 nM
- IC50 [2, 4]: 68.8 nM
- IC50 [3]: 62.1 nM

Structure (SMILES): COc1ncc(-c2ccc3ncnc(N4CCN(C(=O)/C=C/C(C)=O)CC4)c3c2)cc1NS(=O)(=O)c1c(F)cncc1F [Example 102, (E)-3,5-difluoro-N-(2-methoxy-5-(4-(4-(4-oxopent-2-enoyl)piperazin-1-yl)quinazolin-6-yl)pyridin-3-yl)pyridine-4-sulfonamide]
- IC50 (PI3Kδ; Table 2): 32.8 nM
- IC50 (KRAS^G12C-SOS1): 141 nM
- IC50 [1]: 73 nM
- IC50 [2, 4]: 142 nM
- IC50 [3]: 516 nM

Structure (SMILES): COc1ncc(-c2ccc3ncnc(N4CCC5(CC4)CN(C(=O)/C=C/C(C)=O)C5)c3c2)cc1NS(=O)(=O)c1ccc(F)cc1 [Example 161, (E)-4-fluoro-N-(2-methoxy-5-(4-(2-(4-oxopent-2-enoyl)-2,7-diazaspiro[3.5]nonan-7-yl)quinazolin-6-yl)pyridin-3-yl)benzenesulfonamide]
- IC50 (PI3Kδ; Table 4): 9.9 nM
- IC50 (KRAS^G12C-SOS1): 284 nM
- IC50 [1]: 43.4 nM
- IC50 [2, 4]: 67.8 nM
- IC50 [3]: 145 nM

Structure (SMILES): COc1ncc(-c2ccc3ncnc(N4CC5CCC(C4)N5C(=O)/C=C/C(C)=O)c3c2)cc1NS(=O)(=O)c1ccc(F)cc1Cl [Example 175, 2-chloro-4-fluoro-N-(2-methoxy-5-(4-(8-((E)-4-oxopent-2-enoyl)-3,8-diazabicyclo [3.2.1]octan-3-yl)quinazolin-6-yl)pyridin-3-yl)benzene-sulfonamide]
- IC50 (PI3Kδ; Table 4): 16.2 nM
- IC50 (KRAS^G12C-SOS1): 288 nM
- IC50 [1]: 22.3 nM
- IC50 [2, 4]: 22.8 nM
- IC50 [3]: 58.1 nM

Reference: patent publication US20250145589A1, “PYRIDINE DERIVATIVE AND USE THEREOF” (SICHUAN HUIYU PHARMACEUTICAL CO., LTD., priority 2021, published 2025)
